Read-outs that look alike come from different tables or passages of the source.
What was measured:
[1] = Cytotoxicity in vitro assay (CellTiter-Glo); assay type: cell-based; details: African green monkey, Vero cells, mean ± SD
Protocol: Vero cells, obtained from the Rio de Janeiro Cell Bank (BCRJ code 0245), were dissociated with trypsin–EDTA solution (0.025%), and maintained in RPMI 1640 medium supplemented with 10% fetal bovine serum (FBS) at 37 °C in a humidified atmosphere of 5% CO2.
The compound toxicity was evaluated in Vero cell cultures. Briefly, Vero cells were seeded in 96-well white culture plates at a density of 1.5 × 10^4 cells/well for 24 h at 37 °C and 5% CO2. Thereafter, the cell monolayers were washed with phosphate-buffered saline (PBS) and 200 μL of fresh medium with a serial dilution of the pyrazole-thiazoline derivatives and Bz (1.9–500 µM) added. The cell viability was determined by luminescent assay using the CellTiter-Glo Kit (Promega Corporation, Madison, WI, USA) based on the ATP level. After 72 h of treatment, 20 μL of CellTiter-Glo solution was added per well, and cultures were kept for 2 min under agitation. The luminescent signal was read on the GloMax reader (Promega Corporation, Madison, WI, USA). The concentration of compounds that reduced 50% of cell viability (CC50) was calculated by linear regression. At least three independent assays were performed in duplicate.

[2] = test system: T. cruzi (Dm28c-Luc) trypomastigotes; test: microbe, parasite or virus in culture; assay type: cell-based, Trypanosoma cruzi; details: for IC50 / IC90: Trypanosoma cruzi, 24 h, Dm28c-Luc, mean ± SD; for IC50: read-out: Trypanocidal Activity Trypomastigotes IC50; for IC90: read-out: Trypanocidal Activity Trypomastigotes IC90; for Trypomastigotes SI (CC50 of Vero cells/IC50): selectivity index vs Vero cells
Protocol: The screening assays were performed with T. cruzi clone Dm28c (TcI) genetically modified to express luciferase gene (Dm28c-Luc), kindly provided by Dr. Cristina Henriques. Trypomastigotes were isolated from T. cruzi-infected Vero cell monolayers (10:1 parasites/host cell ratio). On the 4th day post-infection (dpi), free trypomastigotes in the culture supernatant were harvested, and the number of parasites/mL was quantified in a Neubauer chamber.
The trypanocidal activity of the pyrazole-thiazoline derivatives was evaluated against trypomastigote and intracellular amastigote forms of T. cruzi (Dm28c-Luc). Tissue-derived trypomastigotes (1 × 10^6 parasites/well) were incubated with pyrazole-thiazoline derivatives and Bz in different concentrations (0.41–100 µM) for 24 h at 37 °C in a humidified atmosphere and 5% CO2. The parasite viability was determined by the addition of luciferin (300 µg/mL), followed by luminescence detection on the GloMax microplate reader (Promega Corporation, Madison, WI, USA).
(§1) After 72 h of treatment, luciferin (300 µg/mL) was added to the culture, and the viability of the parasites was assessed by reading the luminescent signal on the GloMax reader (Promega Corporation, Madison, WI, USA). Controls were also performed in non-toxic concentrations of DMSO (≤ 1%). The concentration that reduces the number of viable parasites by 50% (IC50) or 90% (IC90) was calculated by linear regression. The selectivity index (SI) was calculated as CC50/IC50 for each parasite form.

[3] = test system: T. cruzi (Dm28c-Luc) intracellular amastigotes; test: Trypanocidal activity against intracellular amastigotes in infected Vero cell monolayers; assay type: cell-based, Trypanosoma cruzi; details: for IC90: read-out: Trypanocidal Activity Intracellular Amastigotes IC90; for Intracellular Amastigotes SI (CC50 of Vero cells/IC50): selectivity index vs Vero cells
Protocol: The susceptibility of intracellular amastigotes to pyrazole-thiazoline derivatives (series 1 and 2) was evaluated using 24 h T. cruzi-infected Vero cell monolayers (10:1 parasite/host cell ratio). Then, the cultures were washed with PBS to remove non-internalized parasites, and 200 μL of fresh medium with a serial dilution of pyrazole-thiazoline derivatives and Bz (0.41–100 µM) was added for 72 h at 37 °C.
as §1

[4] = Trypanosoma cruzi, Vero, 72 h, Dm28c-Luc in Vero cells, 72 h, mean ± SD, read-out: Trypanocidal Activity Intracellular Amastigotes IC50
[5] = Trypanosoma cruzi, Vero, pIC50 = −log IC50, Dm28c-Luc clone, read-out: Intracellular Amastigotes pIC50 (converted)
[6] = Trypanosoma cruzi, Dm28c-Luc in Vero cells, 72 h, mean ± SD
[7] = Dm28c-Luc in Vero cells, 72 h, mean ± SD, read-out: Trypanocidal Activity Intracellular Amastigotes IC50

SMILES	melting point	CC50 at 72 h [1]	IC50 [2]	IC90 [2]	Trypomastigotes SI (CC50 of Vero cells/IC50) [2]	IC50 [3, 4]	IC50 [3, 5]	IC90 [3, 6]	Intracellular Amastigotes SI (CC50 of Vero cells/IC50) [3]	IC50 [3, 7]
COc1ccc(-n2cc(C3=NCCS3)cn2)cc1 [Compound 2k, 2-(1-(4-methoxyphenyl)-1H-pyrazol-4-yl)-4,5-dihydrothiazole]	114 to 116 °C	110 ± 9.4 µM	3.1 ± 0.3 µM	36.1 ± 2.6 µM	36.1	22.4 ± 2.8 µM	22.9 µM	53 ± 9.8 µM	4.9	
Nc1c(C2=NCCS2)cnn1-c1ccc(F)cc1 [Compound 1g, 2-(5-amino-1-(4-fluorophenyl)-1H-pyrazol-4-yl)-4,5-dihydrothiazole]	244 to 246 °C	483 ± 16.6 µM	> 100 µM	> 100 µM	<5	96.3 ± 2.7 µM	97.7 µM	> 100 µM	5.6	
Nc1c(C2=NCCS2)cnn1-c1cccc(F)c1 [Compound 1h, 2-(5-amino-1-(3-fluorophenyl)-1H-pyrazol-4-yl)-4,5-dihydrothiazole]	230 to 232 °C	> 500 µM	> 100 µM	> 100 µM	<5	> 100 µM	> 100 µM	> 100 µM	<5	
Nc1c(C2=NCCS2)cnn1-c1cc(Cl)cc(Cl)c1 [Compound 1d, 2-(5-amino-1-(3,5-dichlorophenyl)-1H-pyrazol-4-yl)-4,5-dihydrothiazole]	232 to 234 °C	416 ± 34.6 µM	> 100 µM	> 100 µM		63.2 ± 5.4 µM	64.6 µM	> 100 µM	6.6	
Nc1c(C2=NCCS2)cnn1-c1ccccc1 [Compound 1a, 2-(5-amino-1-phenyl-1H-pyrazol-4-yl)-4,5-dihydrothiazole]	176 to 178 °C	248 ± 22 µM	66.4 ± 2.7 µM	> 100 µM	3.7	80.7 ± 3.9 µM	81.3 µM	> 100 µM	3.1	
Clc1ccc(-n2cc(C3=NCCS3)cn2)cc1 [Compound 2f, 2-(1-(4-chlorophenyl)-1H-pyrazol-4-yl)-4,5-dihydrothiazole]	130 to 133 °C	91.7 ± 13.1 µM	0.6 ± 0.3 µM	13.3 ± 2.3 µM	143.6	< 10 µM	~10 µM	33.5 ± 4.4 µM	12.0	7.6 ± 2.5 µM
Nc1c(C2=NCCS2)cnn1-c1cccc(Br)c1 [Compound 1j, 2-(5-amino-1-(3-bromophenyl)-1H-pyrazol-4-yl)-4,5-dihydrothiazole]	171 to 173 °C	> 500 µM	52.3 ± 3.4 µM	> 100 µM	>9.5	26.6 ± 3.1 µM	26.9 µM	> 100 µM	>18.7	
Clc1cccc(-n2cc(C3=NCCS3)cn2)c1Cl [Compound 2l, 2-(1-(2,3-dichlorophenyl)-1H-pyrazol-4-yl)-4,5-dihydrothiazole]	112 to 114 °C	88.7 ± 9.3 µM	25.8 ± 1.9 µM	> 100 µM	3.44	25.3 ± 2.4 µM	25.7 µM	75.5 ± 8.3 µM	3.5	
COc1ccc(-n2ncc(C3=NCCS3)c2N)cc1 [Compound 1k, 2-(5-amino-1-(4-methoxyphenyl)-1H-pyrazol-4-yl)-4,5-dihydrothiazole]	164 to 166 °C	> 500 µM	12 ± 3.5 µM	93.4 ± 5.5 µM	>39.9	79.1 ± 4.4 µM	79.4 µM	97.3 ± 4.7 µM	>6.3	
Brc1cccc(-n2cc(C3=NCCS3)cn2)c1 [Compound 2j, 2-(1-(3-bromophenyl)-1H-pyrazol-4-yl)-4,5-dihydrothiazole]	104 to 106 °C	64.5 ± 7.3 µM	9.1 ± 0.9 µM	48.2 ± 4.1 µM	7.11	< 10 µM	~10 µM	31.1 ± 3.1 µM	7.9	8.1 ± 1.3 µM
Nc1c(C2=NCCS2)cnn1-c1cccc(Cl)c1 [Compound 1b, 2-(5-amino-1-(3-chlorophenyl)-1H-pyrazol-4-yl)-4,5-dihydrothiazole]	186 to 189 °C	> 500 µM	96.9 ± 3.1 µM	> 100 µM	>5.2	95.7 ± 4.8 µM	97.7 µM	> 100 µM	5.2	
Nc1c(C2=NCCS2)cnn1-c1ccc(Cl)c(Cl)c1 [Compound 1e, 2-(5-amino-1-(3,4-dichlorophenyl)-1H-pyrazol-4-yl)-4,5-dihydrothiazole]	279 to 282 °C	> 500 µM	> 100 µM	> 100 µM	<5	> 100 µM	> 100 µM	> 100 µM	<5	
c1ccc(-n2cc(C3=NCCS3)cn2)cc1 [Compound 2a, 2-(1-phenyl-1H-pyrazol-4-yl)-4,5-dihydrothiazole]	112 to 114 °C	187 ± 12.7 µM	1.1 ± 0.3 µM	10.4 ± 1.1 µM	166.8	10.7 ± 2.2 µM	10.7 µM	89 ± 2.6 µM	17.4	

Source: PMC9146228, “Bioactivity of Novel Pyrazole-Thiazolines Scaffolds against Trypanosoma cruzi: Computational Approaches and 3D Spheroid Model on Drug Discovery for Chagas Disease” (Pharmaceutics, 2022)
